The source of these data is patent US10065990B2, “Cyclic peptide compound, and preparation method, pharmaceutical composition and use thereof” (HANGZHOU GUANYU BIO-MEDICAL CO., LTD, priority 2013, dated 2018).

Where two headings read alike, the source gives them in different places.

One may read the GI50 as the concentration giving 50% growth inhibition.

The subject of assay [1] is SGC-7901 (human gastric cancer cells). In words: MTT cancer cell growth inhibition. As to conditions: Homo sapiens, SGC-7901, 72 h, MTT, 72 hours incubation, SGC-7901 cells; read-out: GI50 SGC-7901. In kind it is cell-based. A digest of the protocol:
(§1)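 Using a 72 h MTT format, triplicate wells of 1500 cells received compound concentrations from 10^−5 to 10^−10 M. Formazan was read at 570 nm after DMSO dissolution, and GI50 was derived from viability.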

The subject of assay [2] is MCF-7 (human breast cancer cells). The assay can be described thus: MTT cancer cell growth inhibition. As to conditions: Homo sapiens, MCF7, 72 h, 72 hours incubation, read-out: GI50 MCF. In kind it is cell-based. The gist of the method: as §1
Assay [3] has as its system H1975 (non-small cell lung adenocarcinoma). The assay can be described thus: MTT cancer cell growth inhibition. In kind it is cell-based. Particulars: Homo sapiens, NCI-H1975, 72 h, MTT, 72 hours incubation, H1975 cells; read-out: GI50 H1975. The gist of the method:
as §1

The test system of assay [4] is Bel-7402 (human hepatoma cells). In words: MTT cancer cell growth inhibition. In kind it is cell-based. Particulars: Homo sapiens, Bel-7402, 72 h, MTT, 72 hours incubation, Bel-7402 cells; read-out: GI50 Bel-7402. A digest of the protocol: as §1
The test system of assay [5] is PANC-1 (Pac-1, human pancreatic cancer cells). In words: MTT cancer cell growth inhibition. In kind it is cell-based. As to conditions: Homo sapiens, PANC-1, 72 h, MTT, 72 hours incubation, read-out: GI50 PAN. The gist of the method:
as §1

For assay [6], the system named is A549 (human lung cancer cells). In words: MTT cancer cell growth inhibition. Particulars: Homo sapiens, A549, 72 h, MTT, 72 hours incubation, read-out: GI50 A54. In kind it is cell-based. A digest of the protocol:
as §1

For assay [7], the system named is HCC827 (human non-small cell lung cancer cells). In words: MTT cancer cell growth inhibition. In kind it is cell-based. Particulars: Homo sapiens, HCC827, 72 h, MTT, 72 hours incubation, HCC827 cells; read-out: GI50 HCC827. A digest of the protocol: as §1
Assay [8] deals with BGC-823 (human gastric cancer cells). The assay can be described thus: MTT cancer cell growth inhibition. In kind it is cell-based. Particulars: Homo sapiens, BGC-823, 72 h, MTT, 72 hours incubation, read-out: GI50 BG. A digest of the protocol:
as §1

Assay [9] concerns K562 (human leukemia cells). In words: MTT cancer cell growth inhibition. In kind it is cell-based. Particulars: Homo sapiens, K562, 72 h, MTT, 72 hours incubation, K562 cells; read-out: GI50 K562. The gist of the method:
as §1

Assay [10] relates to Hela (human cervical cancer cells). The assay can be described thus: MTT cancer cell growth inhibition. In kind it is cell-based. As to conditions: Homo sapiens, HeLa, 72 h, MTT, 72 hours incubation, read-out: GI50 Hela. The gist of the method: as §1
Assay [11] deals with MDA-MB-231 (breast cancer cells). In words: MTT cancer cell growth inhibition. In kind it is cell-based. As to conditions: Homo sapiens, MDA-MB-231, 72 h, read-out: GI50 MDA-MB-231, MTT, 72 hours incubation, MDA-MB-231 cells. The gist of the method: as §1
Assay [12] relates to N-87 (human gastric cancer cells). In words: MTT cancer cell growth inhibition. In kind it is cell-based. Particulars: Homo sapiens, 72 h, MTT, 72 hours incubation, N-87 cells; read-out: GI50 N-87. The gist of the method:
as §1

Assay [13] concerns U937 (human leukemia cells). The assay can be described thus: MTT cancer cell growth inhibition. In kind it is cell-based. As to conditions: Homo sapiens, U-937, 72 h, MTT, 72 hours incubation, read-out: GI50 U93. A digest of the protocol: as §1
Assay [14] relates to DU145 (human prostate cancer cells). In words: MTT cancer cell growth inhibition. As to conditions: Homo sapiens, DU-145, 72 h, MTT, 72 hours incubation, read-out: GI50 Du1. In kind it is cell-based. A digest of the protocol: as §1
Assay [15] has as its system HT1080 (human fibrosarcoma cells). The assay can be described thus: MTT cancer cell growth inhibition. In kind it is cell-based. As to conditions: Homo sapiens, HT-1080, 72 h, MTT, 72 hours incubation, read-out: GI50 HT1. The gist of the method: as §1
For assay [16], the system named is Huh-7 (human hepatoma cells). In words: MTT cancer cell growth inhibition. In kind it is cell-based. As to conditions: Homo sapiens, Huh-7, 72 h, MTT, 72 hours incubation, Huh-7 cells; read-out: GI50 Huh-7. The gist of the method:
as §1

In assay [17] the test system is KBM5-T315I (human chronic myelogenous leukemia). The assay can be described thus: MTT cancer cell growth inhibition. In kind it is cell-based. As to conditions: Homo sapiens, 72 h, MTT, 72 hours incubation, KBM5-T315I cells; read-out: GI50 KBM5-T315I. The gist of the method: as §1
The subject of assay [18] is MOLT-4 (human acute lymphoblastic leukemia cells). The assay can be described thus: MTT cancer cell growth inhibition. In kind it is cell-based. As to conditions: Homo sapiens, MOLT-4, 72 h, MTT, 72 hours incubation, read-out: GI50 Mol. A digest of the protocol: as §1
The test system of assay [19] is KBM-5 (human chronic myelogenous leukemia). In words: MTT cancer cell growth inhibition. As to conditions: Homo sapiens, KBM5, 72 h, MTT, 72 hours incubation, KBM-5 cells; read-out: GI50 KBM-5. In kind it is cell-based. The gist of the method: as §1
The test system of assay [20] is lncap (prostate cancer cells). In words: MTT cancer cell growth inhibition. In kind it is cell-based. As to conditions: Homo sapiens, LNCaP, 72 h, MTT, 72 hours incubation, read-out: GI50 lnca. A digest of the protocol: as §1
In the next assay the target is T1, HDAC7 (Homo sapiens, UniProt Q8WUI4).
T1 sequence (Q8WUI4 1-952): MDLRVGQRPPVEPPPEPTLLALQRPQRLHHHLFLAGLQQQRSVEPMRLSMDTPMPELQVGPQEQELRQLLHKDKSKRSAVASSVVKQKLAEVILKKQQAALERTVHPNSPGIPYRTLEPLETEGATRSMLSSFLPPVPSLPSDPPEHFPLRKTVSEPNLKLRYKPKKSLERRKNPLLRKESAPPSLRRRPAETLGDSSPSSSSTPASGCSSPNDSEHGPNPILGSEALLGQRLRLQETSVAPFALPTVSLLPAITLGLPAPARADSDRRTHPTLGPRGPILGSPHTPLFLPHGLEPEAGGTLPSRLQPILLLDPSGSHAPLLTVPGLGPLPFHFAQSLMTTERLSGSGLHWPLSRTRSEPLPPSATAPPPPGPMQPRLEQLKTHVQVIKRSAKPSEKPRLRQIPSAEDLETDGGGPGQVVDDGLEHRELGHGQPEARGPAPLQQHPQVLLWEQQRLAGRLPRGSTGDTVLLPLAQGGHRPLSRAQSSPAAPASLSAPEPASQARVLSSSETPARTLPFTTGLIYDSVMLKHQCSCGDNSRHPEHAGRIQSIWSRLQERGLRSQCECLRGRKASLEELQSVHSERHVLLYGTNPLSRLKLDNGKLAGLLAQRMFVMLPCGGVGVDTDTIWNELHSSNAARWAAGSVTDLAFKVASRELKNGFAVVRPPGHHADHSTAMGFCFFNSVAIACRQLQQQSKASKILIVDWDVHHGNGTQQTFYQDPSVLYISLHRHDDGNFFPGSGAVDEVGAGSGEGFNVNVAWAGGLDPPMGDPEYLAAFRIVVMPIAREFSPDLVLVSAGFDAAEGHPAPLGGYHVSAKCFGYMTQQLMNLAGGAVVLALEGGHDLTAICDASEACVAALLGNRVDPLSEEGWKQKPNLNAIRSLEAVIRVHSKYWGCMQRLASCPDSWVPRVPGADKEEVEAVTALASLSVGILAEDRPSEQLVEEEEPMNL
The assay can be described thus: HDAC biochemical activity measurement (fluorescent substrate deacetylation).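 Also: fluorogenic deacetylation assay using acetyl-lysine substrate at 20 µM, enzyme and compound incubated 30 min at 37 °C, then developer added, fluorescence read at 360/460 nm.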 Particulars: HDAC7; 37° C. 30 minutes.

Method for HDAC7: The chemical activity of the compound is determined according to the degree of deacetylation inhibition of the HDAC enzyme. This experiment measured the degree of deacetylation related to tumor proliferation and metastasis of HDAC1, HDAC2, HDAC3, HDAC8, HDAC11 five subtypes HDAC enzymes. After the substrate containing an acetylated lysine side chain and HDAC enzyme are labeled with a fluorescent label, the fluorescent substrate is de acetyl. The fluorescent labeled substrate is cleaved by the enzyme, and the fluorescent substance is released, which generates 460 nm emission light under the excitation of 360 nm light.
HDAC substrate was diluted with reaction buffer to 200M (reaction concentration of 20M), the HDAC enzyme was diluted to the appropriate concentration, then added different concentrations of the test compounds and acted at 37° C. 30 minutes, and then added the same volume of 2-times concentration substrate developing solution (developer), incubated at room temperature for 15 minutes. Finally, the last reading measured with a microplate plate reader, excitation light was 360 nm, the emitted light was 460 nm, data processing software was Prime 4, and the results are shown in Table 1.

Regarding `C/C=C1\NC(=O)c2ccc(F)c(n2)CNC(=O)C[C@@H](/C=C/CCS)OC(=O)[C@H](CCCCNC(=O)OCC2c3ccccc3-c3ccccc32)NC1=O` [Compound 122], the GI50 in assay [1] was found to be 61 nM; in assay [2], 30 nM; in assay [3], 55 nM; in [4], 49 nM; in assay [5] it was 30 nM; in assay [6] it was 110 nM. For the same molecule, the GI50 in assay [7] was 32 nM; in [8], 20 nM; in assay [9] it was 46 nM; in [10], 50 nM; in assay [11] it was 32 nM; in assay [12], 48 nM. Moreover, the GI50 in assay [13] was found to be 110 nM; in assay [14], 80 nM; in assay [15] it was 30 nM; in assay [16], 91 nM; in assay [17], 26 nM; in assay [18], 100 nM. Moreover, the GI50 in assay [19] stood at 38 nM; in [20] it was 30 nM. The “IC50 HDAC7” value on HDAC7 was “no activity”.
As for `C/C=C1\NC(=O)c2nc(ccc2SC)CNC(=O)C[C@@H](/C=C/CCSC(=O)CCCCCCC)OC(=O)[C@H](C)NC1=O` [Compound 180], the concentration for 50% growth inhibition (GI50) in assay [1] is 35 nM; in [2] (MCF-7 cells), 20 nM; in assay [3], 97 nM; in assay [4] it was 48 nM; in assay [5] (PANC-1 cells), 30 nM; in assay [6] (A549 cells), 30 nM. Moreover, the GI50 stood at 13 nM in [7]; 50 nM in assay [8] (BGC-823 cells); 49 nM in assay [9]; 100 nM in assay [10] (Hela cells); 56 nM in assay [11]; 62 nM in [12]. The GI50 was determined as 70 nM in [13] (U937 cells); 60 nM in assay [14] (DU145 cells); 50 nM in [15] (HT1080 cells); 17 nM in [16]; 57 nM in assay [17]; 50 nM in [18] (MOLT-4 cells). The GI50 in assay [19] amounted to 29 nM; in [20] (lncap cells), 20 nM. Moreover, on HDAC7, the “IC50 HDAC7” value was “no activity”.
In the case of `C/C=C1\NC(=O)c2cccc(n2)CNC(=O)C[C@@H](/C=C/CCSC(C)=O)OC(=O)[C@@H](C)NC1=O` [Example 25], the GI50 in assay [1] stood at 29 nM; in [2] it was 53600 nM; in assay [3] it was 42 nM; in assay [4], 93 nM; in assay [5], 550 nM; in [6], 15400 nM. Further, the GI50 in assay [7] amounted to 33 nM; in assay [8], 3300 nM; in assay [9], 27 nM; in [10] it was 67700 nM; in assay [11] it was 92 nM; in assay [12], 38 nM. Moreover, the GI50 in [13] is 2290 nM; in [14] it was 1300 nM; in [15] it was 39200 nM; in assay [16], 62 nM; in assay [17], 29 nM; in [18], 300 nM. Besides, the GI50 in assay [19] came to 59 nM; in assay [20], 700 nM. On HDAC7, the “IC50 HDAC7” value was “no activity”.
Consider `C/C=C1\NC(=O)c2cccc(n2)CNC(=O)C[C@@H](/C=C/CCS)OC(=O)[C@H](Cc2ccc(O)cc2)NC1=O` [Compound 127], for which the GI50 in assay [1] is 36 nM; in assay [2] it was 70 nM; in assay [3] it was 36 nM; in assay [4] it was 37 nM; in assay [5], 50 nM; in [6] it was 50 nM. For the same molecule, the GI50 is 38 nM in assay [7]; 50 nM in [8]; 28 nM in [9]; 80 nM in assay [10]; 37 nM in assay [11]; 46 nM in [12]. The GI50 turned out to be 50 nM in [13]; 70 nM in assay [14]; 80 nM in [15]; 71 nM in assay [16]; 28 nM in assay [17]; 80 nM in assay [18]. Moreover, the GI50 was found to be 53 nM in [19] and 80 nM in assay [20]. Besides, the “IC50 HDAC7” value against HDAC7 is “no activity”.
